How the values were obtained:
p38α = molecular target: T1, p38α (Homo sapiens, UniProt Q16539); assay: p38 MAP Kinase assay: inhibition of ATF2 phosphorylation, ELISA; format: biochemical; settings: ATF2 phosphorylation; read-out: [ENZ] P38 ALPHA, IC50, ELISA
T1 construct: p38 MAP Kinases are recombinant human full-length proteins with an amino-terminal GST fusion; GST (N); purchased Upstate Biotechnology Inc; host or cells: E. coli
Outline: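 GST-tagged full-length human p38 MAP kinase with GST-ATF2 (aa 19–96; 1.25 μM) and 40 μM ATP in HEPES pH 7.5 buffer, without (Method I) or with (Method II) 1% human serum albumin. Compound pre-incubated 15 min at room temperature; reaction 30 min at 37 °C; ATF2 Thr69 phosphorylation measured by ELISA (A450).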

[1] = tested on: TNFα release from THP-1 cells; assay: Inhibition of TNFα release from LPS-stimulated THP-1 cells, ELISA; format: cell-based; settings: Homo sapiens, THP-1, THP-1 cells, read-out: [CELL] THP-1, IC50, TNF ALPHA, ELISA
Outline: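 Human THP-1 monocytes, 10^6 cells/ml in RPMI with 10% FBS, no serum or 1% HSA, preincubated 30 min at 37 °C with compound (≤0.5% DMSO), then stimulated with 10 μg/ml LPS for 18 h. Supernatant TNFα measured by ELISA; IC50 from non-linear dose-response regression.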

T1 sequence (Q16539 whole entry, the tested form may be a part): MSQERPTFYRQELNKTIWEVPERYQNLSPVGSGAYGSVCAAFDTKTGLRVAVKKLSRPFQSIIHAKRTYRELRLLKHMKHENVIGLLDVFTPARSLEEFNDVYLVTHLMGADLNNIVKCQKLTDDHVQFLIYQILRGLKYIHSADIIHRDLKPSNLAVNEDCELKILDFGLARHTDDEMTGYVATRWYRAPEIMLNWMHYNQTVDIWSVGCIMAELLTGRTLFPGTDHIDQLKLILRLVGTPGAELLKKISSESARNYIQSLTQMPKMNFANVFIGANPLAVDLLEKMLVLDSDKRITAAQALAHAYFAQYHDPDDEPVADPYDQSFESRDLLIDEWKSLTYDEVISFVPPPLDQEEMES

Row | Structure (SMILES) | IC50 (p38α) [nM] | IC50 [1] [nM] | melting point [°C]
1 | CC(C)(C)Oc1cccc(C(=O)Nc2ccc(OCCN3CCOCC3)c3ccccc23)c1 [Compound B65, 3-tert-Butoxy-N-[4-(2-morpholin-4-yl-ethoxy)-naphthalen-1-yl]-benzamide] | 614 | 3420 | 50 to 51
2 | O=C(Nc1ccc(Oc2ccnc(NCC3OCCO3)n2)c2ccccc12)c1cc(F)cc(N2CCOCC2)c1 [Compound B369, N-[4-({2-[(1,3-dioxolan-2-ylmethyl)amino]pyrimidin-4-yl}oxy)-1-naphthyl]-3-fluoro-5-morpholin-4-ylbenzamide] | 2.9 | 33.3 | 122 to 124
3 | CC(=O)N1CCN(c2nccc(Oc3ccc(NC(=O)c4cc(F)cc(N5CCCCC5)c4)c4ccccc34)n2)CC1 [Compound B400, N-(4-{[2-(4-Acetylpiperazin-1-yl)pyrimidin-4-yl]oxy}-1-naphthyl)-3-fluoro-5-piperidin-1-ylbenzamide] | 7.4 | 565 | 102 to 104
4 | O=C(Nc1ccc(Oc2ccnc(N3CCC(O)CC3)n2)c2ccccc12)c1cc(F)cc(N2CCOCC2)c1 [Compound B332, 3-Fluoro-N-(4-{[2-(4-hydroxypiperidin-1-yl)pyrimidin-4-yl]oxy}-1-naphthyl)-5-morpholin-4-ylbenzamide] | 5 | 252 | 106 to 108
5 | O=C(Nc1ccc(OCCN2CCOCC2)c2ccccc12)c1cc(F)cc(N2CCCCC2)c1 [Compound B66, 3-Fluoro-N-[4-(2-morpholin-4-ylethoxy)-1-naphthyl]-5-piperidin-1-ylbenzamide] | 112 | 6050 | 150 to 151
6 | COC(CN(C)c1nccc(Oc2ccc(NC(=O)c3cc(F)cc(N4CCCCC4)c3)c3ccccc23)n1)OC [Compound B403, N-[4-({2-[(2,2-Dimethoxyethyl)(methyl)amino]pyrimidin-4-yl}oxy)-1-naphthyl]-3-fluoro-5-piperidin-1-ylbenzamide] | 48.3 | 254 | 135 to 136
7 | CC1CCC(Nc2nccc(Oc3ccc(NC(=O)c4cc(F)cc(N5CCCCC5)c4)c4ccccc34)n2)CC1 (stereo not drawn) [Compound B388, 3-Fluoro-N-[4-({2-[(4-methylcyclohexyl)amino]pyrimidin-4-yl}oxy)-1-naphthyl]-5-piperidin-1-ylbenzamide] | 42.7 | 102 | 101 to 102
8 | CN(CC1OCCO1)c1nccc(Oc2ccc(NC(=O)c3cc(F)cc(N4CCCCC4)c3)c3ccccc23)n1 [Compound B395, N-[4-({2-[(1,3-Dioxolan-2-ylmethyl)(methyl)amino]pyrimidin-4-yl}oxy)-1-naphthyl]-3-fluoro-5-piperidin-1-ylbenzamide] | 31.3 | 212 | 125 to 127
9 | O=C(Nc1ccc(OCc2ccncc2)c2ccccc12)c1cc(F)cc(OC2CCOCC2)c1 [Compound B229, 3-Fluoro-N-[4-(pyridin-4-ylmethoxy)-1-naphthyl]-5-(tetrahydro-2H-pyran-4-yloxy)benzamide] | 821 | 5660 | 182 to 184
10 | COCCN(C)c1nccc(Oc2ccc(NC(=O)c3cc(F)cc(N4CCCCC4)c3)c3ccccc23)n1 [Compound B414, 3-Fluoro-N-[4-({2-[(2-methoxyethyl)(methyl)amino]pyrimidin-4-yl}oxy)-1-naphthyl]-5-piperidin-1-ylbenzamide] | 28.9 | 580 | 81 to 82
11 | O=C(Nc1ccc(Oc2ccnc(N3CCOCC3)n2)c2ccccc12)c1cc(F)cc(N2CCOCC2)c1 [Compound B248, 3-Fluoro-5-morpholin-4-yl-N-{4-[(2-morpholin-4-ylpyrimidin-4-yl)oxy]-1-naphthyl}benzamide] | 46.6 | 157 | 104 to 106
12 | O=C(Nc1ccc(Oc2ccnc(NC3(CO)CCCC3)n2)c2ccccc12)c1cc(F)cc(N2CCOCC2)c1 [Compound B350, 3-Fluoro-N-{4-[(2-{[1-(hydroxymethyl)cyclopentyl]amino}pyrimidin-4-yl)oxy]-1-naphthyl}-5-morpholin-4-ylbenzamide] | 9.5 | 68.1 | 115 to 117
13 | O=C(Nc1ccc(Oc2ccnc(NC3CC3)n2)c2ccccc12)c1cc(F)cc(N2CCOCC2)c1 [Compound B321, N-(4-{[2-(Cyclopropylamino)pyrimidin-4-yl]oxy}-1-naphthyl)-3-fluoro-5-morpholin-4-ylbenzamide] | 3.1 | 76.1 | 118 to 120
14 | O=C(Nc1ccc(OCCN2CCOCC2)c2ccccc12)c1ccc2snnc2c1 [Compound B50, N-[4-(2-Morpholin-4-ylethoxy)-1-naphthyl]-1,2,3-benzothiadiazole-5-carboxamide] | 1240 | 9180 | 188 to 190
15 | COC(CN(C)c1nccc(Oc2ccc(NC(=O)c3cc(F)cc(N4CCOCC4)c3)c3ccccc23)n1)OC [Compound B351, N-[4-({2-[(2,2-Dimethoxyethyl)(methyl)amino]pyrimidin-4-yl}oxy)-1-naphthyl]-3-fluoro-5-morpholin-4-ylbenzamide] | 27.1 | 274 | 92 to 94
16 | O=C(Nc1ccc(OCCN2CCOCC2)c2ccccc12)c1cccc(-n2cccc2)c1 [Compound B57, N-[4-(2-Morpholin-4-yl-ethoxy)-naphthalen-1-yl]-3-pyrrol-1-yl-benzamide] | 1190 | 2650 | 142 to 143
17 | CSc1nccc(Oc2ccc(NC(=O)c3cc(F)cc(OC4CCCCC4)c3)c3ccccc23)n1 [Compound B303, 3-(Cyclohexyloxy)-5-fluoro-N-(4-{[2-(methylthio)pyrimidin-4-yl]oxy}-1-naphthyl)benzamide] | 275 | 232 | 130 to 132
18 | CC(C)(C)OC(=O)N1CCN(c2nccc(Oc3ccc(NC(=O)c4cc(F)cc(N5CCOCC5)c4)c4ccccc34)n2)CC1 [Compound B340, t-Butyl-4-[4-({4-[(3-fluoro-5-morpholin-4-ylbenzoyl)amino]-1-naphthyl}oxy)pyrimidin-2-yl]piperazine-1-carboxylate] | 55.9 | > 1000 | 131 to 133
19 | O=C(Nc1ccc(Oc2ccnc(-n3ccnc3)n2)c2ccccc12)c1cc(F)cc(N2CCCCC2)c1 [Compound B379] | 15.1 | 530 | 175 to 176
20 | CCN(C)c1cc(F)cc(C(=O)Nc2ccc(OCCN3CCOCC3)c3ccccc23)c1 [Compound B207, 3-[Ethyl(methyl)amino]-5-fluoro-N-[4-(2-morpholin-4-ylethoxy)-1-naphthyl]benzamide] | 1120 | > 10000 | 126 to 128
21 | CCN1CCN(c2nccc(Oc3ccc(NC(=O)c4cc(F)cc(N5CCOCC5)c4)c4ccccc34)n2)CC1 [Compound B345, N-(4-{[2-(4-Ethylpiperazin-1-yl)pyrimidin-4-yl]oxy}-1-naphthyl)-3-fluoro-5-morpholin-4-ylbenzamide] | 13.3 | 79.6 | 185 to 186
22 | O=C(Nc1ccc(Oc2ccnc(N3CCCC(O)C3)n2)c2ccccc12)c1cc(F)cc(N2CCCCC2)c1 (stereo not drawn) [Compound B402, 3-Fluoro-N-(4-{[2-(3-hydroxypiperidin-1-yl)pyrimidin-4-yl]oxy}-1-naphthyl)-5-piperidin-1-ylbenzamide] | 14.6 | 655 | 93 to 95
23 | CSc1nccc(-c2ccc(NC(=O)c3cc(F)cc(N4CCOCC4)c3)c3ccccc23)n1 [Compound B270, 3-Fluoro-N-[4-(2-methylsulfanyl-pyrimidin-4-yl)-naphthalen-1-yl]-5-morpholin-4-yl-benzamide] | 1650 | 6420 | 135 to 138
24 | O=C(Nc1ccc(OCCN2CCOCC2)c2ccccc12)c1cccc(N2CCCCC2)c1 [Compound B48, N-[4-(2-Morpholin-4-yl-ethoxy)-naphthalen-1-yl]-3-piperidin-1-yl-benzamide] | 464 | 7650 | 147 to 148
25 | C#CCN(C)c1nccc(Oc2ccc(NC(=O)c3cc(F)cc(N4CCOCC4)c3)c3ccccc23)n1 [Compound B352, 3-Fluoro-N-[4-({2-[methyl(prop-2-yn-1-yl)amino]pyrimidin-4-yl}oxy)-1-naphthyl]-5-morpholin-4-ylbenzamide] | 32.5 | 518 | 97 to 98
26 | O=C(Nc1ccc(Oc2ccnc(N3CCCC(O)C3)n2)c2ccccc12)c1cc(F)cc(N2CCOCC2)c1 (stereo not drawn) [Compound B346, 3-Fluoro-N-(4-{[2-(3-hydroxypiperidin-1-yl)pyrimidin-4-yl]oxy}-1-naphthyl)-5-morpholin-4-ylbenzamide] | 5.2 | 431 | 180 to 181
27 | COc1ccc(CCOc2ccc(NC(=O)c3cc(F)cc(N4CCOCC4)c3)c3ccccc23)cc1OC [Compound B189, N-{4-[2-(3,4-Dimethoxyphenyl)ethoxy]-1-naphthyl}-3-fluoro-5-morpholin-4-ylbenzamide] | 441 | 2610 | 73 to 75

From patent publication US7829560B2, “1,4-disubstituted naphthalenes as inhibitors of P38 MAP kinase” (Arqule, Inc., priority 2004, dated 2010)
